In the NIST ThermoML archive (doi:10.1021/acs.jced.6b00536):
± gives the expanded uncertainty stated by the source.

Assay: xn = mol fraction of the nth substance listed
Conditions: Gas, Frequency=0.05 MHz, Single path-length method, x2 = 0.058

FC(F)(F)C(F)(F)C(F)(F)F [octafluoropropane] + N#N
Conditions | speed of sound [m/s]
293.32 K, 0.09882 kPa | 117.97 ± 0.09
293.32 K, 0.119 kPa | 117.53 ± 0.09
293.32 K, 0.1196 kPa | 117.53 ± 0.09
293.32 K, 0.139 kPa | 117.08 ± 0.09
293.32 K, 0.1393 kPa | 117.06 ± 0.09
293.32 K, 0.1596 kPa | 116.59 ± 0.09
293.32 K, 0.1599 kPa | 116.61 ± 0.1
293.32 K, 0.1779 kPa | 116.19 ± 0.1
293.32 K, 0.1782 kPa | 116.19 ± 0.1
293.32 K, 0.1958 kPa | 115.78 ± 0.1
293.32 K, 0.1967 kPa | 115.77 ± 0.1
293.32 K, 0.207 kPa | 115.54 ± 0.1
293.32 K, 0.2174 kPa | 115.26 ± 0.1
293.32 K, 0.218 kPa | 115.26 ± 0.1
293.32 K, 0.2185 kPa | 115.27 ± 0.1
293.32 K, 0.2573 kPa | 114.33 ± 0.1
293.32 K, 0.2766 kPa | 113.86 ± 0.1
293.32 K, 0.2771 kPa | 113.88 ± 0.1
293.32 K, 0.2946 kPa | 113.41 ± 0.1
293.32 K, 0.2954 kPa | 113.39 ± 0.1
293.32 K, 0.3175 kPa | 112.86 ± 0.1
293.32 K, 0.3315 kPa | 112.52 ± 0.09
298.38 K, 0.1005 kPa | 119.04 ± 0.09
298.38 K, 0.121 kPa | 118.61 ± 0.09
298.38 K, 0.1413 kPa | 118.17 ± 0.09
298.38 K, 0.1627 kPa | 117.7 ± 0.09
298.38 K, 0.1814 kPa | 117.31 ± 0.09
298.38 K, 0.2001 kPa | 116.91 ± 0.09
298.38 K, 0.2106 kPa | 116.69 ± 0.09
298.38 K, 0.2213 kPa | 116.42 ± 0.09
298.38 K, 0.222 kPa | 116.42 ± 0.09
298.38 K, 0.262 kPa | 115.52 ± 0.09
298.38 K, 0.282 kPa | 115.07 ± 0.09
298.38 K, 0.3011 kPa | 114.61 ± 0.09
298.38 K, 0.3239 kPa | 114.1 ± 0.09
298.38 K, 0.338 kPa | 113.78 ± 0.09
303.42 K, 0.1021 kPa | 120.1 ± 0.09
303.42 K, 0.1231 kPa | 119.68 ± 0.09
303.42 K, 0.1437 kPa | 119.25 ± 0.09
303.42 K, 0.1656 kPa | 118.81 ± 0.09
303.42 K, 0.1845 kPa | 118.41 ± 0.09
303.42 K, 0.2036 kPa | 118.03 ± 0.09
303.42 K, 0.2142 kPa | 117.81 ± 0.09
303.42 K, 0.2253 kPa | 117.56 ± 0.09
303.42 K, 0.2258 kPa | 117.55 ± 0.09
303.42 K, 0.2668 kPa | 116.7 ± 0.09
303.42 K, 0.2873 kPa | 116.26 ± 0.09
303.42 K, 0.3067 kPa | 115.81 ± 0.09
303.42 K, 0.3302 kPa | 115.32 ± 0.09
303.42 K, 0.3443 kPa | 114.98 ± 0.09
308.47 K, 0.1038 kPa | 121.14 ± 0.09
308.47 K, 0.1251 kPa | 120.73 ± 0.09
308.47 K, 0.146 kPa | 120.32 ± 0.09
308.47 K, 0.1683 kPa | 119.89 ± 0.09
308.47 K, 0.1877 kPa | 119.52 ± 0.09
308.47 K, 0.207 kPa | 119.14 ± 0.09
308.47 K, 0.2178 kPa | 118.93 ± 0.09
308.47 K, 0.2293 kPa | 118.7 ± 0.09
308.47 K, 0.2297 kPa | 118.68 ± 0.09
308.47 K, 0.2717 kPa | 117.84 ± 0.09
308.47 K, 0.2924 kPa | 117.42 ± 0.09
308.47 K, 0.3124 kPa | 116.99 ± 0.09
308.47 K, 0.3365 kPa | 116.51 ± 0.09
308.47 K, 0.3509 kPa | 116.21 ± 0.09
313.51 K, 0.1052 kPa | 122.18 ± 0.09
313.51 K, 0.1271 kPa | 121.79 ± 0.09
313.51 K, 0.1483 kPa | 121.39 ± 0.09
313.51 K, 0.171 kPa | 120.97 ± 0.09
313.51 K, 0.1907 kPa | 120.6 ± 0.09
313.51 K, 0.2105 kPa | 120.24 ± 0.09
313.51 K, 0.2214 kPa | 120.03 ± 0.09
313.51 K, 0.2331 kPa | 119.78 ± 0.09
313.51 K, 0.2338 kPa | 119.8 ± 0.09
313.51 K, 0.2763 kPa | 118.97 ± 0.09
313.51 K, 0.2975 kPa | 118.58 ± 0.09
313.51 K, 0.318 kPa | 118.15 ± 0.09
313.51 K, 0.3428 kPa | 117.7 ± 0.09
313.51 K, 0.3574 kPa | 117.4 ± 0.09
318.52 K, 0.1068 kPa | 123.2 ± 0.09
318.52 K, 0.1291 kPa | 122.82 ± 0.09
318.52 K, 0.1506 kPa | 122.42 ± 0.09
318.52 K, 0.1737 kPa | 122.03 ± 0.09
318.52 K, 0.1939 kPa | 121.67 ± 0.09
318.52 K, 0.2139 kPa | 121.32 ± 0.09
318.52 K, 0.2251 kPa | 121.12 ± 0.09
318.52 K, 0.2374 kPa | 120.89 ± 0.09
318.52 K, 0.2377 kPa | 120.89 ± 0.09
318.52 K, 0.2812 kPa | 120.11 ± 0.09
318.52 K, 0.3027 kPa | 119.71 ± 0.09
318.52 K, 0.3235 kPa | 119.3 ± 0.09
318.52 K, 0.349 kPa | 118.86 ± 0.09
318.52 K, 0.3638 kPa | 118.57 ± 0.1
323.53 K, 0.1085 kPa | 124.22 ± 0.14
323.53 K, 0.1312 kPa | 123.85 ± 0.14
323.53 K, 0.1531 kPa | 123.46 ± 0.13
323.53 K, 0.1766 kPa | 123.09 ± 0.13
323.53 K, 0.197 kPa | 122.74 ± 0.12
323.53 K, 0.2175 kPa | 122.4 ± 0.12
323.53 K, 0.2288 kPa | 122.2 ± 0.12
323.53 K, 0.2413 kPa | 121.97 ± 0.11
323.53 K, 0.2416 kPa | 121.98 ± 0.11
323.53 K, 0.2859 kPa | 121.21 ± 0.1
323.53 K, 0.308 kPa | 120.83 ± 0.1
323.53 K, 0.3293 kPa | 120.45 ± 0.1
323.53 K, 0.3551 kPa | 120.01 ± 0.1
323.53 K, 0.3704 kPa | 119.72 ± 0.09
